How the values were obtained:
[1] = test system: mouse neuroblastoma cell line neuro-2a; experiment: Activity on neuro-2a, cells with outgrown neurites; type: cell-based
Method in brief: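 Mouse neuro-2a cells in DMEM with FCS exposed to compounds for 24 h (up to 6 concentrations, triplicate runs), glutaraldehyde-fixed and methylene blue-stained. Proportion of cells bearing a neurite at least twice the cell's long diameter counted microscopically over ≥200 cells.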

[2] = test system: human neuroblastoma cell line GOTO; experiment: Activity on cell line GOTO (simple method); type: cell-based; settings: Table 2 GOTO Run No. 1; 10 μg/ml; control 8.4
Procedure: The biological activities in vitro of the compounds of formula (I) on cells of the nervous system were tested. The cells tested were human neuroblastoma cell line GOTO [see Sekiguchi, M., Oota, T., Sakakibara, K., Inui, N. & Fujii, G., Japan. J. Exp. Med., 49, 67-83 (1979)], and neuroblastoma cell line NB-1 [see Miyake, S., Shimo, Y., Kitamura, T., Nojyo, Y., Nakamura, T., Imkashuku, S. and Abe, T., The Autonomic Nervous System, 10, 115-120 (1973)], and mouse neuroblastoma cell line neuro-2a (Dainippon Pharmaceutical Co., Ltd.) which have been established as the cells of the nervous system. The above neuve cells were grown in an incubator at 37° C. in the presence of 5% carbon dioxide gas exponentially, and then cultivated for a certain period of time together with the compounds of formula (I).
A culture medium [composed of 45% of RPMI 1640 medium, 45% modified Eagle's medium (MEM) and 10% of fetal calf serum (FCS) and containing penicillin G sodium (100 units/ml) and streptomycin sulfate (100 microgram/ml)] containing neurobalstoma cell line GOTO in the logarithmic growth period was poured in an amount of 2 ml each into polystyrene dishes (35 mm; made by Corning Co.) so that the cell concentration was 2 to 6×10^4 cells per dish, and the cells were cultured for 1 to 2 days in a carbon dioxide gas incubator containing 5% of carbon dioxide gas in air at 37° C. Then, the culture fluid was removed, and 2 ml of a fresh serum-free culture fluid (consisting of 50% of RPMI medium and 50% of MEM medium and containing penicillin G sodium and streptomycin sulfate in the same amounts as above) was added. At the same time, a presterilized PBS solution (phosphate buffered saline) of each of the test compounds in various concentrations was added to each of the dishes. After culturing for 24 hours, the number of living cells was counted. Furthermore, the culture was photographed, and from the photos, the number and length of neurites per cell were measured. The numer of living cells was counted for 3 to 6 dishes by resistance to staining with erythrosine dye. The number and length of the neurites were measured with regard to 6 photos (more than 200 cells per photo).
As a simple method of evaluation, the number of cells have neurites with a length equal to, or larger than, the long diameter of the cell was divided by the total number of cells.

[3] = test system: rats with lesioned nigral dopaminergic nerve cells; experiment: Methamphetamine-induced rotational movement of rats with lesioned nigral dopaminergic nerve cells after transplantation of fetal cerebral cells; type: in vivo, rat (female Wistar); settings: number within one minute
Procedure: Rats and mice models of central nervous disorders were prepared, and the pharmacological effects of the compounds (I) of this invention were tested. Specifically, nigral dopamine cells of the rat brain were chemically destroyed by injecting a very small amount of 6-hydroxydopamineto induce motor imbalance. Two weeks later, dopamine cells of fetal brain were transplanted in the caudate nucleus into the lesioned side of the rat brain and an attempt was made to improve the motor trouble. Specifically, beginning on the day of transplantation, the compound (I) of the invention was intraperitoneally administered every day over 2 weeks, and the activity of the compounds (I) of the invention on the improvement of the motor imbalance and the growth of the transplanted cells was examined.
Promoting effect on the improvement of motor imbalance due to injury of the rat's brain cells by transplantation of fetal cerebral cells:
Nigral dopaminergic nerve cells at the left side of the brain of 4-week old female Wistar rats (body weight 100 g) were lesioned by injecting a very small quantity of 6-hydroxydopamine. […] Upon administration of methamphethamine (5 mg/kg, i.p.) to the rats having the lesioned nigral dopaminergic nerve cells, they began rotational movement toward the lesioned side.
After two weeks from the destruction by the administration of the drug, portions of the […] containing dopamine cells (i.e., substantia nigra and the tagmentum at the abdomen side) were cut from the brain of a fetal rat of 14 to 17 days of age, cut finely, and treated with trypsin. Then, the extracted tissues were incubated at 37° C. for 30 minutes, and the tissues were subjected to pipetting to form a suspension. Five microliters of the suspension was transplanted each into two sites of the caudate nucleus of the lesioned side (10 microliters in total, about 10^5 cells).
Each of the compounds (I) in a dose of 100 mg/kg (i.p.) was administered every day over two weeks from the day of transplantation. The rotational movements induced by administration of methamphetamine were examined 2 weeks and 1 week before, and 2 weeks and 4 weeks after, the transplantation and the administration of the drug. The number of rotational movements within one minute was counted at intervals of 10 minutes after the administration of methamphetamine, and the total number of rotational movements counted six times was averaged to find a mean number of the rotational movements.

mice = experiment: Acute toxicity, mouse; type: in vivo; settings: 24 hours; for Number of dead animals/number of test animals: Table 7, 1000 mg/kg p.o.; for Presumed LD50: Table 7, p.o.
Procedure: The acute toxicity of the compounds of the invention was examined by the following method.
Male ddy-strain 5-week old mice and male Wistar-strain 8 week old rats, five per group, were used as experimental animals. Each of the compounds was dissolved in saline and administered perorally, and the toxicity of the compound was assessed 24 hours after the administration.

[4] = Run No. 1, 1 week before transplantation, saline 12.23 ± 4.88
[5] = Run No. 1, 2 weeks after transplantation, 100 mg/kg i.p. daily over two weeks, saline 5.9 ± 2.75
[6] = Run No. 1, 2 weeks before transplantation, saline 10.9 ± 4.57
[7] = Run No. 1, 4 weeks after transplantation, 100 mg/kg i.p. daily over two weeks, saline 3 ± 3.23
[8] = Run No. 2, 1 week before transplantation, saline 10 ± 5.3
[9] = Run No. 2, 2 weeks after transplantation, 100 mg/kg i.p. daily over two weeks, saline 4.4 ± 5.9
[10] = Run No. 2, 2 weeks before transplantation, saline 12 ± 3.95
[11] = Run No. 2, 4 weeks after transplantation, 100 mg/kg i.p. daily over two weeks, saline 1.5 ± 3.2

Structure (SMILES)	Average of the proportions [2] [%]	Number of rotational movements (mean ± S.D.) [3, 4]	Number of rotational movements (mean ± S.D.) [3, 5]	Number of rotational movements (mean ± S.D.) [3, 6]	Number of rotational movements (mean ± S.D.) [3, 7]	Number of rotational movements (mean ± S.D.) [3, 8]	Number of rotational movements (mean ± S.D.) [3, 9]	Number of rotational movements (mean ± S.D.) [3, 10]	Number of rotational movements (mean ± S.D.) [3, 11]	also measured
CN1C(=O)Cc2cnc(N3CCNCC3)nc21 [Compound 408]	25.33	12.27 ± 2.48	4.9 ± 2.38	8.57 ± 2.36	2.03 ± 1.56	11.06 ± 4.5	1.94 ± 2.0	10.94 ± 6.4	1.53 ± 2.1	Cells having neurites with a length at least twice the long diameter of cell/total number of cells ([1]; Table 3 Run No. 3, 0.01 mM, control 3.9 ± 0.3): 7.9 ± 1.8%; Cells having neurites with a length at least twice the long diameter of cell/total number of cells ([1]; Table 3 Run No. 3, 0.03 mM, control 3.9 ± 0.3): 13.0 ± 1.2%; Cells having neurites with a length at least twice the long diameter of cell/total number of cells ([1]; Table 3 Run No. 3, 0.05 mM, control 3.9 ± 0.3): 23.0 ± 1.7%; Cells having neurites with a length at least twice the long diameter of cell/total number of cells ([1]; Table 3 Run No. 3, 0.1 mM, control 3.9 ± 0.3): 51.2 ± 1.5%; Cells having neurites with a length at least twice the long diameter of cell/total number of cells ([1]; Table 3 Run No. 4, 0.05 mM, control 3.1 ± 0.2): 16.8 ± 2.7%; Cells having neurites with a length at least twice the long diameter of cell/total number of cells ([1]; Table 3 Run No. 4, 0.1 mM, control 3.1 ± 0.2): 33.5 ± 2.7%; Cells having neurites with a length at least twice the long diameter of cell/total number of cells ([1]; Table 3 Run No. 4, 0.2 mM, control 3.1 ± 0.2): 44.6 ± 3.1%; Cells having neurites with a length at least twice the long diameter of cell/total number of cells ([1]; Table 3 Run No. 7, 0.01 mM, control 2.5 ± 0.7): 6.2 ± 0.9%; Cells having neurites with a length at least twice the long diameter of cell/total number of cells ([1]; Table 3 Run No. 7, 0.1 mM, control 2.5 ± 0.7): 25.0 ± 2.7%; Cells having neurites with a length at least twice the long diameter of cell/total number of cells ([1]; Table 3 Run No. 7, 0.2 mM, control 2.5 ± 0.7): 44.5 ± 2.9%; Cells having neurites with a length at least twice the long diameter of cell/total number of cells ([1]; Table 3 first Run No. 5, 0.05 mM, no control given): 12.8 ± 1.8%; Cells having neurites with a length at least twice the long diameter of cell/total number of cells ([1]; Table 3 first Run No. 5, 0.1 mM, no control given): 23.5 ± 2.5%; Number of dead animals/number of test animals (mice; 1000 mg/kg): 0/5; Presumed LD50 (mice): > 1000 mg/kg p.o.
CN1Cc2nc(N3CCNCC3)ncc2C1=O [Compound 604]	21.30	10.4 ± 5.75	2.99 ± 2.91	10.6 ± 3.82	3.37 ± 1.65	11.28 ± 4.0	1.03 ± 2.9	13.33 ± 4.9	0.75 ± 2.8	Cells having neurites with a length at least twice the long diameter of cell/total number of cells ([1]; Table 3 Run No. 3, 0.3 mM, control 3.9 ± 0.3): 8.6 ± 0.9%; Cells having neurites with a length at least twice the long diameter of cell/total number of cells ([1]; Table 3 Run No. 3, 1 mM, control 3.9 ± 0.3): 10.7 ± 1.3%; Number of dead animals/number of test animals (mice): 0/5; Presumed LD50 (mice; 1440 min): > 1000 mg/kg p.o.

From patent US4959368A, “Therapeutic agent for neurological diseases” (Mitsui Petrochemical Industries Ltd., priority 1986, dated 1990)
